# In patent publication US20050222178A1, “Process” (priority 2002, published 2005):
# Assay: relative stability of the polymorphic forms of Compound A
# Type: physicochemical
Compound,"stability relative to the other polymorph (at ambient temperatures, for example 15-20° C.)","stability relative to the other polymorph (at elevated temperatures, for example temperatures in excess of 70° C.)"
"CC(C)(C)c1nnc([C@H]2O[C@@H](n3cnc4c(Nc5ccc(Cl)cc5F)ncnc43)[C@H](O)[C@@H]2O)o1 [Polymorph I, (2S,3S,4R,5R)-2-(5-tert-butyl-[1,3,4]-oxadiazol-2-yl)-5-[6-(4-chloro-2-fluorophenylamino)-9H-purin-9-yl]-tetrahydrofuran-3,4-diol]",enhanced stability over Polymorph II,–
"CC(C)(C)c1nnc([C@H]2O[C@@H](n3cnc4c(Nc5ccc(Cl)cc5F)ncnc43)[C@H](O)[C@@H]2O)o1 [Polymorph II, (2S,3S,4R,5R)-2-(5-tert-butyl-[1,3,4]-oxadiazol-2-yl)-5-[6-(4-chloro-2-fluorophenylamino)-9H-purin-9-yl]-tetrahydrofuran-3,4-diol]",–,enhanced stability over Polymorph I
